Data on seven compounds can be found in patent US4599333A, “Hydrazinopyridazine compound, process for production thereof, and use thereof as medicament” (Teikoku Hormone Mfg. Co., Ltd., priority 1984, dated 1986).

Holding throughout (type): in vivo, male Wistar rats
One experiment deals with heart rate. Kind of experiment: Heart rate increase produced by isoproterenol. The note with it: single i.v. injection 0.1 μg/kg, before test compound. The method, then:
Experiments were done using male Wistar rats weighing between 300 and 400 g, anesthetized with sodium pentobarbital (60 mg/kg i.p.). The blood pressure was directly measured by connecting a cannula inserted in the femoral artery to a pressure transducer and the heart rate was calculated from the pulse waves of the blood pressure tracings. Each value shown here was obtained from three animals. The test compounds were individually dissolved in physiological saline solution or a 0.01N aqueous solution of hydrochloric acid. A single intravenous (i.v.) injection of isoproternol (0.1 μg/kg) produced an increase in heart rate by approximately 90 beats/min. The increased heart rate before injection of the test compound was represented by H1. Three minutes after i.v. injection of the test compound, isoproterenol (0.1 μg/kg i.v.) was again administered and then the change in heart rate was measured. The maximum increase in heart rate after injection of the test compound was designated as H2. From these values, the percent inhibition of the change in heart rate was calculated in accordance with the following equation.

For another experiment, the target named is T1, β1-adrenoceptors (Rattus norvegicus, UniProt P18090).
T1 construct: Experiments were done using male Wistar rats; from tissue; host or cells: whole anesthetized male Wistar rat (in vivo; heart rate)
T1 sequence (P18090 whole entry): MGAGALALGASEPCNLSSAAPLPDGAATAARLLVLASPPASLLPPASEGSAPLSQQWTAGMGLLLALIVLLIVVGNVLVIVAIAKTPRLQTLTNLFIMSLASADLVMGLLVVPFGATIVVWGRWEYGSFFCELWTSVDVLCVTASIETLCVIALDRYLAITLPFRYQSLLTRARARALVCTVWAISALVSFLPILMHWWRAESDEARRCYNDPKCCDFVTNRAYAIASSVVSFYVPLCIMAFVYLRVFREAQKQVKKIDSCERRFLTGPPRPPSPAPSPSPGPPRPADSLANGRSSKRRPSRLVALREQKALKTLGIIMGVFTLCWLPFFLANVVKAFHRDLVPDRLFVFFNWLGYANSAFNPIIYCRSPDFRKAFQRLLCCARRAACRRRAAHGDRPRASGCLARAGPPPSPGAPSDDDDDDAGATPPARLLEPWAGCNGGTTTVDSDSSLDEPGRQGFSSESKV
Description: β1-adrenoceptor blocking action (inhibition of increase in heart rate exerted by isoproterenol) and selectivity for β1-adrenoceptors. The note with it: blocking activity ratio from ID50 doses; Table 2. The protocol: (§1) Experiments were done using male Wistar rats weighing between 300 and 400 g, anesthetized with sodium pentobarbital (60 mg/kg i.p.). The blood pressure was directly measured by connecting a cannula inserted in the femoral artery to a pressure transducer and the heart rate was calculated from the pulse waves of the blood pressure tracings. Each value shown here was obtained from three animals. The test compounds were individually dissolved in physiological saline solution or a 0.01N aqueous solution of hydrochloric acid.
(§2) (1) Measurement of β-adrenoceptor blocking activity
The increased heart rate before injection of the test compound was represented by H1. Three minutes after i.v. injection of the test compound, isoproterenol (0.1 μg/kg i.v.) was again administered and then the change in heart rate was measured. The maximum increase in heart rate after injection of the test compound was designated as H2. From these values, the percent inhibition of the change in heart rate was calculated in accordance with the following equation.
(§3) By repeating the procedure mentioned above at various doses of the test compounds, dose-response curves were prepared.

Another experiment concerns the target T2, β2 (Rattus norvegicus, UniProt P10608).
T2 construct: Experiments were done using male Wistar rats; from tissue; host or cells: whole anesthetized male Wistar rat (in vivo; arterial blood pressure)
Description: β2-adrenoceptor blocking action (inhibition of fall in blood pressure exerted by isoproterenol). The note with it: iv, 50% inhibition of fall in blood pressure by isoproterenol 0.1 μg/kg i.v., Table 2, read-out: β-adrenoceptor blocking action ID50 β2. The protocol:
as §1, §2, §3

T2 sequence (P10608 whole entry): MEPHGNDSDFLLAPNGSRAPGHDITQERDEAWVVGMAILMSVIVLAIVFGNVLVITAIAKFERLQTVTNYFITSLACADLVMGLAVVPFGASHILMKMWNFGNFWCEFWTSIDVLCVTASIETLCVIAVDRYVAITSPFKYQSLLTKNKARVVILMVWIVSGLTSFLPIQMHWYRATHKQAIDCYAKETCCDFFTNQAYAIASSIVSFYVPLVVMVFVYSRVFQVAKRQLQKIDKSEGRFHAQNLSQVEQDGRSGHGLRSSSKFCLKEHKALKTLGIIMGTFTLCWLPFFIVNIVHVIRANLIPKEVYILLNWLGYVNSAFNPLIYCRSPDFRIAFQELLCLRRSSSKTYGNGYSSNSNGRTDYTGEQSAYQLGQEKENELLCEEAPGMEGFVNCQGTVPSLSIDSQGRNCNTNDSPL

Take `CC(C)NCC(O)c1ccc(O)c(O)c1` (stereo not drawn) [isoproternol, isoproterenol]: the “increase in heart rate” value in the experiment with heart rate was “approximately 90 beats/min”.

Regarding `Cc1ccc(C#N)c(OCC(O)CNC(C)(C)COc2ccc(NN)nn2)c1` (stereo not drawn) [K, 1-(2-cyano-5-methylphenoxy)-3-[1,1-dimethyl-2-(3-hydrazino-6-pyridazinyloxy)ethylamino]-2-propanol], the “Selectivity for β1-adrenoceptors (β1/β2)” value at β1-adrenoceptors was determined as 2. Further, the ED50 at β2 stood at 0.1 mg/kg.

As for `C#Cc1ccccc1OCC(O)CNC(C)(C)COc1ccc(NN)nn1` (stereo not drawn) [R, 1-(2-ethinylphenoxy)-3-[1,1-dimethyl-2-(3-hydrazino-6-pyridazinyloxy)ethylamino]-2-propanol], the “Selectivity for β1-adrenoceptors (β1/β2)” value at β1-adrenoceptors is on record as above 5.

With `Cc1ccccc1OCC(O)CNC(C)(C)COc1ccc(NN)nn1` (stereo not drawn) [C, 1-(2-methylphenoxy)-3-[1,1-dimethyl-2-(3-hydrazino-6-pyridazinyloxy)ethylamino]-2-propanol], the “Selectivity for β1-adrenoceptors (β1/β2)” value on β1-adrenoceptors came out at 30. Moreover, the ED50 on β2 is 0.45 mg/kg.

Take `CC(C)(COc1ccc(NN)nn1)NCC(O)COc1ccccc1Cl` (stereo not drawn) [B, 1-(2-chlorophenoxy)-3-[1,1-dimethyl-2-(3-hydrazino-6-pyridazinyloxy)ethylamino]-2-propanol]: the “Selectivity for β1-adrenoceptors (β1/β2)” value on β1-adrenoceptors was 29. For the same compound, the ED50 on β2 was 0.23 mg/kg.

Turning to `CC(C)(COc1ccc(NN)nn1)NCC(O)COc1ccccc1C#N` (stereo not drawn) [Compound I, 1-(2-cyanophenoxy)-3-[1,1-dimethyl-2-(3-hydrazino-6-pyridazinyloxy)ethylamino]-2-propanol], the “Selectivity for β1-adrenoceptors (β1/β2)” value on β1-adrenoceptors stood at 5. The ED50 on β2 was 0.1 mg/kg.

Take `CC(C)NCC(O)COc1ccc(CC(N)=O)cc1` (stereo not drawn) [Atenolol, reference compound]: the “Selectivity for β1-adrenoceptors (β1/β2)” value on β1-adrenoceptors turned out to be 30. Also, the ED50 at β2 turned out to be 1.5 mg/kg.
